21 compounds from patent US11254668B2, “Pyrazolo[1,5-A]pyrazin-4-yl and related derivatives” (Pfizer Inc., priority 2017, dated 2022) can be followed below.

Common to all, as to format: biochemical
One assay concerns the target TYK2 (Homo sapiens (Human), UniProt P29597). Briefly: JAK Caliper Enzyme Assay at 1 mM ATP, TYK2. An outline of the steps:
(§1)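 Peptide phosphorylation by recombinant human kinase domain, 1 mM ATP, room temperature, EDTA-terminated, detected by microfluidic mobility shift; % effect normalised to DMSO baseline.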

A further assay deals with JAK1 (Homo sapiens (Human), UniProt P23458). Kind of assay: JAK Caliper Enzyme Assay at 1 mM ATP, JAK1. The method, boiled down:
(§2)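 Recombinant human kinase domains phosphorylate a fluorescent synthetic peptide at 1 mM ATP, room temperature, with enzyme and time tuned for 20-30% conversion; EDTA-stopped. Product/substrate separated by microfluidic mobility shift; percent effect versus DMSO and positive controls fitted to IC50 (nM).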

For another assay, the target named is JAK2 (Homo sapiens (Human), UniProt O60674). Kind of assay: JAK Caliper Enzyme Assay at 1 mM ATP, JAK2. An outline of the steps: as §1
Sequence of JAK2 (O60674 849-1124): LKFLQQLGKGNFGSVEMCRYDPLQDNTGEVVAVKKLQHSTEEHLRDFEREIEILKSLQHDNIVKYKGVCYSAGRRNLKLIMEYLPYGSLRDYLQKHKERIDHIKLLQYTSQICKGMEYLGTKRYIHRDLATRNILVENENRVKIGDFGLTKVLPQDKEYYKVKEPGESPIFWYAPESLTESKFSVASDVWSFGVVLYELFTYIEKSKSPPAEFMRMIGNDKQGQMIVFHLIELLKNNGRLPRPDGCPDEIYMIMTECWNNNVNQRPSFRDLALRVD
The target of a further assay is JAK3 (Homo sapiens (Human), UniProt P52333). Kind of assay: JAK Caliper Enzyme Assay at 1 mM ATP, JAK3. An outline of the steps: as §2
Sequence of JAK3 (P52333 822-1111): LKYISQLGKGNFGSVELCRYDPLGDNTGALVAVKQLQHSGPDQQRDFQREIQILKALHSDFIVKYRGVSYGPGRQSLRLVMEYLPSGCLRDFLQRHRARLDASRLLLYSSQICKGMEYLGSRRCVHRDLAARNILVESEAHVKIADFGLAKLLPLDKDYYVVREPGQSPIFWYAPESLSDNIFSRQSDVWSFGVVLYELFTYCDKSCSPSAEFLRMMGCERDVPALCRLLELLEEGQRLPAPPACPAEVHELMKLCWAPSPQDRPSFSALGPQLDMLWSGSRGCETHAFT

pIC50: −log10 of the molar value.

Sequence of JAK1 (P23458 875-1153): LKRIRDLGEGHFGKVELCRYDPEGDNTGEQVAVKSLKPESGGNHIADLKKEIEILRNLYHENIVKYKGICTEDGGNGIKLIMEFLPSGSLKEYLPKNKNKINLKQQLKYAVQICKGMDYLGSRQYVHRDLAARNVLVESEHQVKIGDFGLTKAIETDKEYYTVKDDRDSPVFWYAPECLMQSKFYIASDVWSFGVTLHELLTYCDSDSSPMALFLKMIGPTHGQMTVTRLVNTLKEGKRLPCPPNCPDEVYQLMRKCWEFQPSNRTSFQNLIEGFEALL
Sequence of TYK2 (P29597 897-1176): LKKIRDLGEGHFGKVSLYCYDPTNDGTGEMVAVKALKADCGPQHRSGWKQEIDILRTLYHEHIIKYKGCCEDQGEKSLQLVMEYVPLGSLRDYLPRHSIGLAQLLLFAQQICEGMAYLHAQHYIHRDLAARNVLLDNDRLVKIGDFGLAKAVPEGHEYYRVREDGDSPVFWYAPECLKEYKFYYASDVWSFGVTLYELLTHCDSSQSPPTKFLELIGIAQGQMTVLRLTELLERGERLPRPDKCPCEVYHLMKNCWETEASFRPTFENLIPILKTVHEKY

In the case of `N#CCC1(n2ncc(-c3cc(-c4cc[nH]n4)cc4ncccc34)n2)CN(S(=O)(=O)C2CC2)C1` [Example 299, [1-(cyclopropylsulfonyl)-3-{4-[7-(1H-pyrazol-3-yl)quinolin-5-yl]-2H-1,2,3-triazol-2-yl}azetidin-3-yl]acetonitrile], the pIC50 (in general, the IC50 on a negative log10 scale, so that one unit is a factor of ten) is 8.00 on TYK2, 6.55 at JAK1, 6.60 on JAK2 and below 5.00 on JAK3.
In the case of `N#CCC1(n2ncc(-c3cc(-c4ccn[nH]4)cc4ncccc34)n2)CN(S(=O)(=O)C2COC2)C1` [Example 301, [1-(oxetan-3-ylsulfonyl)-3-{4-[7-(1H-pyrazol-5-yl)quinolin-5-yl]-2H-1,2,3-triazol-2-yl}azetidin-3-yl]acetonitrile], the negative logarithm of the IC50 (pIC50) at TYK2 is 7.77; on JAK1 it was 6.47; on JAK2 it was 6.71; on JAK3, below 5.00.
The matching figures for `N#CC[C@]1(n2ncc(-c3cc(-c4cc[nH]n4)cc4ncccc34)n2)C[C@H](C#N)C1` [Example 302, trans-3-(cyanomethyl)-3-{4-[7-(1H-pyrazol-3-yl)quinolin-5-yl]-2H-1,2,3-triazol-2-yl}cyclobutanecarbonitrile]: 7.70, 6.36, 6.76 and below 5.00.
Turning to `N#CC[C@]1(n2ncc(-c3cc(-c4cc[nH]n4)cc4ncccc34)n2)C[C@@H](C#N)C1` [Example 303, cis-3-(cyanomethyl)-3-{4-[7-(1H-pyrazol-3-yl)quinolin-5-yl]-2H-1,2,3-triazol-2-yl}cyclobutanecarbonitrile], the pIC50 at TYK2 was 8.30; on JAK1 it was 7.09; at JAK2 it was 7.54; at JAK3 it was 5.51.
Regarding `CO[C@H]1C[C@@](CC#N)(n2ncc(-c3cc(-c4cc[nH]n4)cc4ncccc34)n2)C1` [Example 304, (cis-3-methoxy-1-{4-[7-(1H-pyrazol-3-yl)quinolin-5-yl]-2H-1,2,3-triazol-2-yl}cyclobutyl)acetonitrile], the negative-log IC50 (pIC50) at TYK2 is 7.44; on JAK1, 5.64; on JAK2 it was 6.10; on JAK3 it was below 5.00.
`CO[C@H]1C[C@](CC#N)(n2ncc(-c3cc(-c4cc[nH]n4)cc4ncccc34)n2)C1` [Example 305, (trans-3-methoxy-1-{4-[7-(1H-pyrazol-3-yl)quinolin-5-yl]-2H-1,2,3-triazol-2-yl}cyclobutyl)acetonitrile]: the pIC50 at TYK2 was 7.46; at JAK1, 5.59; at JAK2 it was 5.98; on JAK3, below 5.00.
As for `N#CCC1(n2ncc(-c3cc(-c4cc(N)[nH]n4)cc4ncccc34)n2)CC(C#N)C1` (stereo not drawn) [Example 306, trans-3-{4-[7-(5-amino-1H-pyrazol-3-yl)quinolin-5-yl]-2H-1,2,3-triazol-2-yl}-3-(cyanomethyl)cyclobutanecarbonitrile], the pIC50 at TYK2 was 7.85; at JAK1, 6.59; at JAK2 it was 6.76; on JAK3, 5.04.
On to `N#CC[C@]1(n2ncc(-c3cc(-c4cc(N)[nH]n4)cc4ncccc34)n2)C[C@@H](C#N)C1` [Example 307, cis-3-{4-[7-(5-amino-1H-pyrazol-3-yl)quinolin-5-yl]-2H-1,2,3-triazol-2-yl}-3-(cyanomethyl)cyclobutanecarbonitrile], for which the negative logarithm of the IC50 (pIC50) on TYK2 is 8.15; at JAK1 it was 7.31; at JAK2, 7.52; at JAK3 it was 5.71.
In the case of `N#CC[C@]1(n2ncc(-c3cc(-c4cc(CO)[nH]n4)cc4ncccc34)n2)C[C@H](C#N)C1` [Example 308, trans-3-(cyanomethyl)-3-(4-{7-[5-(hydroxymethyl)-1H-pyrazol-3-yl]quinolin-5-yl}-2H-1,2,3-triazol-2-yl)cyclobutanecarbonitrile], the negative logarithm of the IC50 (pIC50) is 7.74 at TYK2, 6.14 on JAK1, 6.88 on JAK2 and below 5.00 on JAK3.
As to `Cn1nc(-c2cc(-c3cnn([C@]4(CC#N)C[C@@H](C#N)C4)n3)c3cccnc3c2)cc1CO` [Example 309, trans-3-(cyanomethyl)-3-(4-{7-[5-(hydroxymethyl)-1-methyl-1H-pyrazol-3-yl]quinolin-5-yl}-2H-1,2,3-triazol-2-yl)cyclobutanecarbonitrile], the pIC50 at TYK2 is 7.54; at JAK1, 5.73; on JAK2 it was 6.79; on JAK3, below 5.00.
The matching figures for `Cn1nccc1-c1cc(-c2cnn(C3(CC#N)CN(S(C)(=O)=O)C3)n2)c2cccnc2c1` [Example 310, [3-{4-[7-(1-methyl-1H-pyrazol-5-yl)quinolin-5-yl]-2H-1,2,3-triazol-2-yl}-1-(methylsulfonyl)azetidin-3-yl]acetonitrile]: 6.14, below 5.00, below 5.00 and below 5.00.
For `Cn1ccc(-c2cc(-c3cnn(C4(CC#N)CN(S(C)(=O)=O)C4)n3)c3cccnc3c2)n1` [Example 311, [3-{4-[7-(1-methyl-1H-pyrazol-3-yl)quinolin-5-yl]-2H-1,2,3-triazol-2-yl}-1-(methylsulfonyl)azetidin-3-yl]acetonitrile], the negative-log IC50 (pIC50) was 7.60 on TYK2, 5.65 on JAK1, 6.54 at JAK2 and below 5.00 at JAK3.
Regarding `Cn1ccc(-c2cc(-c3cnn([C@]4(CC#N)C[C@@H](C#N)C4)n3)c3cccnc3c2)n1` [Example 312, trans-3-(cyanomethyl)-3-{4-[7-(1-methyl-1H-pyrazol-3-yl)quinolin-5-yl]-2H-1,2,3-triazol-2-yl}cyclobutanecarbonitrile], the negative-log IC50 (pIC50) at TYK2 was 7.51; at JAK1, 5.79; at JAK2, 6.61; at JAK3, below 5.00.
`Cn1ccc(-c2cc(-c3cnn([C@]4(CC#N)C[C@H](C#N)C4)n3)c3cccnc3c2)n1` [Example 313, cis-3-(cyanomethyl)-3-{4-[7-(1-methyl-1H-pyrazol-3-yl)quinolin-5-yl]-2H-1,2,3-triazol-2-yl}cyclobutanecarbonitrile]: the negative logarithm of the IC50 (pIC50) was 7.60 at TYK2, 6.31 at JAK1, 7.10 on JAK2 and 5.26 at JAK3.
Turning to `CS(=O)(=O)N1CC(CC#N)(n2ncc(-c3cc(-c4cn[nH]c4)cc4ncccc34)n2)C1` [Example 314, [1-(methylsulfonyl)-3-{4-[7-(1H-pyrazol-4-yl)quinolin-5-yl]-2H-1,2,3-triazol-2-yl}azetidin-3-yl]acetonitrile], the negative logarithm of the IC50 (pIC50) at TYK2 is 7.49; at JAK1, 5.94; at JAK2, 6.41; at JAK3, below 5.00.
The matching figures for `N#CC[C@]1(n2ncc(-c3cc(-c4cn[nH]c4)cc4ncccc34)n2)C[C@@H](C#N)C1` [Example 316, cis-3-(cyanomethyl)-3-{4-[7-(1H-pyrazol-4-yl)quinolin-5-yl]-2H-1,2,3-triazol-2-yl}cyclobutanecarbonitrile]: 8.10, 6.91, 7.32 and 5.56.
Regarding `N#CC[C@]1(n2ncc(-c3cc(-c4c[nH]nc4CO)cc4ncccc34)n2)C[C@H](C#N)C1` [Example 317, trans-3-(cyanomethyl)-3-(4-{7-[3-(hydroxymethyl)-1H-pyrazol-4-yl]quinolin-5-yl}-2H-1,2,3-triazol-2-yl)cyclobutanecarbonitrile], the negative logarithm of the IC50 (pIC50) on TYK2 is 7.24; at JAK1, 5.55; at JAK2, 6.08; on JAK3, below 5.00.
The matching figures for `N#CC[C@]1(n2ncc(-c3cc(-c4c[nH]nc4CO)cc4ncccc34)n2)C[C@@H](C#N)C1` [Example 318, cis-3-(cyanomethyl)-3-(4-{7-[3-(hydroxymethyl)-1H-pyrazol-4-yl]quinolin-5-yl}-2H-1,2,3-triazol-2-yl)cyclobutanecarbonitrile]: 7.77, 6.27, 6.86 and 5.03.
Regarding `N#CC[C@]1(n2ncc(-c3cc(-c4cn[nH]c4N)cc4ncccc34)n2)C[C@H](C#N)C1` [Example 319, trans-3-{4-[7-(5-amino-1H-pyrazol-4-yl)quinolin-5-yl]-2H-1,2,3-triazol-2-yl}-3-(cyanomethyl)cyclobutanecarbonitrile], the pIC50 was 7.80 on TYK2, 5.90 at JAK1, 6.28 at JAK2 and below 5.00 at JAK3.
The matching figures for `N#CC[C@]1(n2ncc(-c3cc(-c4cn[nH]c4N)cc4ncccc34)n2)C[C@@H](C#N)C1` [Example 320, cis-3-{4-[7-(5-amino-1H-pyrazol-4-yl)quinolin-5-yl]-2H-1,2,3-triazol-2-yl}-3-(cyanomethyl)cyclobutanecarbonitrile]: 8.30, 6.59, 7.11 and 5.10.
Consider `C[C@]1(C#N)C[C@](CC#N)(n2ncc(-c3cc(-c4c[nH]nc4N)cc4ncccc34)n2)C1` [Example 321, trans-3-{4-[7-(3-amino-1H-pyrazol-4-yl)quinolin-5-yl]-2H-1,2,3-triazol-2-yl}-3-(cyanomethyl)-1-methylcyclobutanecarbonitrile], for which the pIC50 is 6.07 at TYK2, below 5.00 at JAK1, 5.11 on JAK2 and below 5.00 on JAK3.
